In PubChem BioAssay AID256 (DTP/NCI, 2004):
Several values for one entry are separate records, joined by “and”; a condition that tells them apart may be missing. Equal values may be shown once. Toxic doses and inconclusive results are not listed. Rule for the calls: active = survival T/C of 150% or more; inactive = T/C below 125% in these data.

Tested on: CD2F1 mice, L1210 leukemia ip, survival T/C
Experiment: NCI In Vivo Anticancer Drug Screen. Data for tumor model L1210 Leukemia (intraperitoneal) in CD2F1 (CDF1) mice
Settings: higher = longer survival
In short: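 Antitumor effect is scored in animals hosting a serially transplanted tumor. Values compare compound-dosed animals against vehicle-only controls as a simple quotient.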

[1] = endpoint: mean survival time, dose: 25.0 mg/kg/injection, schedule: Q04DX003 (ip), vehicle: saline with Tween-80
[2] = endpoint: mean survival time, dose: 50.0 mg/kg/injection, schedule: Q04DX003 (ip), vehicle: saline with Tween-80
[3] = endpoint: mean survival time, dose: 100.0 mg/kg/injection, schedule: Q04DX003 (ip), vehicle: saline with Tween-80
[4] = endpoint: mean survival time, dose: 200.0 mg/kg/injection, schedule: Q04DX003 (ip), vehicle: saline with Tween-80
[5] = endpoint: mean survival time, dose: 400.0 mg/kg/injection, schedule: Q04DX003 (ip), vehicle: saline with Tween-80
[6] = endpoint: mean survival time, dose: 100.0 mg/kg/injection, schedule: Q01DX009 (ip), vehicle: saline with Tween-80
[7] = endpoint: mean survival time, dose: 100.0 mg/kg/injection, schedule: Q01DX001 (ip), vehicle: saline with Tween-80
[8] = endpoint: mean survival time, dose: 200.0 mg/kg/injection, schedule: Q01DX001 (ip), vehicle: saline with Tween-80
[9] = endpoint: mean survival time, dose: 50.0 mg/kg/injection, schedule: Q04DX002 (ip), vehicle: saline with Tween-80
[10] = endpoint: mean survival time, dose: 100.0 mg/kg/injection, schedule: Q04DX002 (ip), vehicle: saline with Tween-80
[11] = endpoint: mean survival time, dose: 200.0 mg/kg/injection, schedule: Q04DX002 (ip), vehicle: saline with Tween-80
[12] = endpoint: mean survival time, dose: 400.0 mg/kg/injection, schedule: Q01DX001 (ip), vehicle: saline with Tween-80
[13] = endpoint: mean survival time, dose: 100.0 mg/kg/injection, schedule: Q01DX001 (ip), vehicle: saline

Measured: T/C

O=C1[C@H]2CCC[C@H]2[C@H]2CCC[C@@H]12
inactive: endpoint: median survival time, dose: 6.25 mg/kg/injection, schedule: Q01DX009 (ip), vehicle: saline with Tween-80 98 % of control | endpoint: median survival time, dose: 12.5 mg/kg/injection, schedule: Q01DX009 (ip), vehicle: saline with Tween-80 106 % of control | endpoint: median survival time, dose: 25.0 mg/kg/injection, schedule: Q01DX009 (ip), vehicle: saline with Tween-80 98 % of control | endpoint: median survival time, dose: 50.0 mg/kg/injection, schedule: Q01DX009 (ip), vehicle: saline with Tween-80 101 % of control | endpoint: median survival time, dose: 100.0 mg/kg/injection, schedule: Q01DX009 (ip), vehicle: saline with Tween-80 106 % of control | endpoint: median survival time, dose: 200.0 mg/kg/injection, schedule: Q01DX009 (ip), vehicle: saline with Tween-80 97 % of control

COc1ccc(COC(=O)Nc2cccc3ccccc23)cc1
inactive: endpoint: mean survival time, dose: 75.0 mg/kg/injection, schedule: Q04DX002 (ip), vehicle: saline with Tween-80 104 % of control | endpoint: mean survival time, dose: 150.0 mg/kg/injection, schedule: Q04DX002 (ip), vehicle: saline with Tween-80 104 % of control | endpoint: mean survival time, dose: 300.0 mg/kg/injection, schedule: Q04DX002 (ip), vehicle: saline with Tween-80 100 % of control

O=C1CC2C3=C(CCC3)CCN2C2=C1CC(OC(=O)c1ccccc1)CC2 (stereo not drawn)
inactive: endpoint: mean survival time, dose: 12.5 mg/kg/injection, schedule: Q04DX003 (ip), vehicle: saline with Tween-80 90 % of control | [1] 88 % of control | [2] 94 % of control

CC(C)c1ccc(C(=O)C(O)c2ccc(C(C)C)cc2)cc1 (stereo not drawn)
inactive: [3] 102 % of control | [4] 102 % of control | [5] 95 % of control

COC(=O)C(CCSC)NC(=O)C(C)NC(=O)OCc1ccccc1 (stereo not drawn)
inactive: [6] 98 % of control | endpoint: mean survival time, dose: 200.0 mg/kg/injection, schedule: Q01DX009 (ip), vehicle: saline with Tween-80 95 % of control | endpoint: mean survival time, dose: 400.0 mg/kg/injection, schedule: Q01DX009 (ip), vehicle: saline with Tween-80 95 % of control

O=C(c1ccccc1)C1(Br)CCC1
inactive: [3] 95 % of control | [4] 97 % of control | [5] 100 % of control

O=S(=O)(c1ccc(Cl)cc1)N(Cl)Cl
inactive: [7] 103 % of control | [8] 101 % of control

CC(=O)Oc1cc(-c2ccccc2)c(OC(C)=O)c(N=[N+]=[N-])c1C
inactive: [7] 101 % of control | [8] 108 % of control

CC#CCOCC(O)CO (stereo not drawn)
inactive: endpoint: mean survival time, dose: 25.0 mg/kg/injection, schedule: Q01DX009 (ip), vehicle: water 98 % of control | endpoint: mean survival time, dose: 50.0 mg/kg/injection, schedule: Q01DX009 (ip), vehicle: water 107 % of control | endpoint: mean survival time, dose: 100.0 mg/kg/injection, schedule: Q01DX009 (ip), vehicle: water 104 % of control | endpoint: mean survival time, dose: 200.0 mg/kg/injection, schedule: Q01DX009 (ip), vehicle: water 115 % of control

CCOC(=O)C1=C(Nc2ccc(OC)cc2)C(N)=NC1=N
inactive: endpoint: median survival time, dose: 6.25 mg/kg/injection, schedule: Q01DX005 (ip), vehicle: suspension in saline 98 % of control | endpoint: median survival time, dose: 12.5 mg/kg/injection, schedule: Q01DX005 (ip), vehicle: suspension in saline 101 % of control and 107 % of control | endpoint: median survival time, dose: 25.0 mg/kg/injection, schedule: Q01DX005 (ip), vehicle: suspension in saline 101 % of control and 107 % of control | endpoint: median survival time, dose: 36.0 mg/kg/injection, schedule: Q01DX005 (ip), vehicle: saline 105 % of control and 108 % of control | endpoint: median survival time, dose: 50.0 mg/kg/injection, schedule: Q01DX005 (ip), vehicle: saline 111 % of control | endpoint: median survival time, dose: 50.0 mg/kg/injection, schedule: Q01DX005 (ip), vehicle: suspension in saline 101 % of control and 107 % of control | endpoint: median survival time, dose: 60.0 mg/kg/injection, schedule: Q01DX005 (ip), vehicle: saline 102 % of control | endpoint: median survival time, dose: 100.0 mg/kg/injection, schedule: Q01DX005 (ip), vehicle: saline 106 % of control | endpoint: median survival time, dose: 100.0 mg/kg/injection, schedule: Q01DX005 (ip), vehicle: suspension in saline 117 % of control

Cc1cccc(NC(=S)NC(=O)c2ccccc2)n1
inactive: endpoint: mean survival time, dose: 12.5 mg/kg/injection, schedule: Q01DX009 (ip), vehicle: other 91 % of control | endpoint: mean survival time, dose: 25.0 mg/kg/injection, schedule: Q01DX009 (ip), vehicle: other 92 % of control | endpoint: mean survival time, dose: 50.0 mg/kg/injection, schedule: Q01DX009 (ip), vehicle: other 88 % of control | endpoint: mean survival time, dose: 100.0 mg/kg/injection, schedule: Q01DX009 (ip), vehicle: other 88 % of control | endpoint: mean survival time, dose: 200.0 mg/kg/injection, schedule: Q01DX009 (ip), vehicle: other 91 % of control

Nc1nc(=O)n(CCCOc2ccc([N+](=O)[O-])c(Cl)c2)cc1-c1ccc(Cl)c(Cl)c1
inactive: [8] 90 % of control

COC(=O)c1cncn1C1c2ccccc2-c2ccccc21
inactive: [9] 103 % of control | [7] 86 % of control | [10] 98 % of control | [8] 91 % of control | [11] 95 % of control | [12] 91 % of control

NC(=O)COc1ccc(Br)cc1
inactive: [10] 102 % of control | [11] 98 % of control

Cc1cccc(NC(=O)C2CCC(C)(C(=O)O)C2(C)C)c1 (stereo not drawn)
inactive: [3] 94 % of control | [4] 90 % of control

COC(=O)c1cc(-c2ccccc2)nc2c1ccc1ccccc12
inactive: [13] 94 % of control

BrCC[Se]c1ccccc1
inactive: endpoint: mean survival time, dose: 3.12 mg/kg/injection, schedule: Q01DX009 (ip), vehicle: saline with Tween-80 105 % of control | endpoint: mean survival time, dose: 6.25 mg/kg/injection, schedule: Q01DX009 (ip), vehicle: saline with Tween-80 111 % of control | endpoint: mean survival time, dose: 12.5 mg/kg/injection, schedule: Q01DX009 (ip), vehicle: saline with Tween-80 102 % of control | endpoint: mean survival time, dose: 25.0 mg/kg/injection, schedule: Q01DX009 (ip), vehicle: saline with Tween-80 115 % of control | endpoint: mean survival time, dose: 50.0 mg/kg/injection, schedule: Q01DX009 (ip), vehicle: saline with Tween-80 107 % of control | [6] 104 % of control

c1ccc(C2=NNC(c3ccccc3)=NN2)cc1
inactive: endpoint: mean survival time, dose: 100.0 mg/kg/injection, schedule: Q01DX001 (ip), vehicle: other 105 % of control | [7] 101 % of control | endpoint: mean survival time, dose: 200.0 mg/kg/injection, schedule: Q01DX001 (ip), vehicle: other 94 % of control | [8] 97 % of control | endpoint: mean survival time, dose: 400.0 mg/kg/injection, schedule: Q01DX001 (ip), vehicle: other 103 % of control | [12] 103 % of control

COC(=O)C(C)(C)Br
inactive: [3] 97 % of control | [4] 102 % of control | [5] 102 % of control

CC(C)(C)OC(=O)NOC(=O)C(C)(C)C
inactive: [1] 101 % of control | [2] 100 % of control | [3] 96 % of control | [4] 89 % of control | [5] 87 % of control

O=N[O-].O=N[O-].[Co].[NH2-].[NH2-].[NH2-].[NH2-]
inactive: endpoint: mean survival time, dose: 25.0 mg/kg/injection, schedule: Q04DX002 (ip), vehicle: saline with Tween-80 93 % of control | [9] 101 % of control | [10] 101 % of control

CCOC(=O)/C=C(/C)N
inactive: [13] 101 % of control | endpoint: mean survival time, dose: 200.0 mg/kg/injection, schedule: Q01DX001 (ip), vehicle: saline 101 % of control | endpoint: mean survival time, dose: 400.0 mg/kg/injection, schedule: Q01DX001 (ip), vehicle: saline 107 % of control

CC1OC(O[C@H]2/C=C/C=C/C=C/C=C/C=C/C=C/C=C/[C@H](C)[C@@H](O)[C@@H](C)[C@H](C)OC(=O)C[C@H](O)C[C@H](O)CC[C@@H](O)[C@H](O)C[C@H](O)C[C@]3(O)C[C@H](O)[C@@H](C(=O)O)[C@H](C2)O3)C(O)C(N)C1O (stereo partly drawn)
inactive: endpoint: median survival time, dose: 2.0 mg/kg/injection, schedule: Q01DX009 (ip), vehicle: suspension in saline 97 % of control | endpoint: median survival time, dose: 4.0 mg/kg/injection, schedule: Q01DX009 (ip), vehicle: suspension in saline 102 % of control | endpoint: median survival time, dose: 8.0 mg/kg/injection, schedule: Q01DX009 (ip), vehicle: suspension in saline 102 % of control | endpoint: median survival time, dose: 16.0 mg/kg/injection, schedule: Q01DX009 (ip), vehicle: suspension in saline 97 % of control and 98 % of control | endpoint: median survival time, dose: 18.75 mg/kg/injection, schedule: Q01DX009 (ip), vehicle: suspension in saline 108 % of control | endpoint: median survival time, dose: 32.0 mg/kg/injection, schedule: Q01DX009 (ip), vehicle: suspension in saline 102 % of control and 105 % of control | endpoint: median survival time, dose: 37.5 mg/kg/injection, schedule: Q01DX009 (ip), vehicle: suspension in saline 104 % of control | endpoint: median survival time, dose: 64.0 mg/kg/injection, schedule: Q01DX009 (ip), vehicle: suspension in saline 101 % of control | endpoint: median survival time, dose: 75.0 mg/kg/injection, schedule: Q01DX009 (ip), vehicle: suspension in saline 104 % of control | endpoint: median survival time, dose: 128.0 mg/kg/injection, schedule: Q01DX009 (ip), vehicle: suspension in saline 105 % of control | endpoint: median survival time, dose: 150.0 mg/kg/injection, schedule: Q01DX009 (ip), vehicle: suspension in saline 112 % of control | endpoint: median survival time, dose: 300.0 mg/kg/injection, schedule: Q01DX009 (ip), vehicle: suspension in saline 106 % of control
